Experimental data: patent US6365622B1 (Sigma-Tau HealthScience S.p.A., priority 1998, dated 2002)

How the values were obtained:
[1] = system: tibial nerve after cutting the sciatic nerve in diabetic rats; assay: Sciatic nerve regeneration test in diabetic rats (alloxan, cut sciatic nerve); type: in vivo, rat; conditions: thirty days after cutting the sciatic nerve, diet 200 mg/kg acetyl L-carnitine or carnitine mixture, 50 mg/kg α-lipoic acid
Protocol: The technique used in these tests is the one described by Fernandez (Fernandez E., Int. J. Clin. Pharmacol. Res., 10, 85, 1990).
Diabetes (serum glucose above 450 mg/dl) was induced in a group of rats by subcutaneous injection of 100 mg/kg of alloxan. […] The compounds were administered a week before cutting the sciatic nerve and for thirty days after cutting.
The sciatic nerve was cut under anaesthesia and after exposing 1 cm of it at the level of the sciatic foramen. The border of the lesion was marked with an epineural suture. Thirty days after cutting the nerve, the tissue of the tibial nerve, one of the main divisions of the sciatic nerve, was examined, after sacrificing the animals. Four cross-sections of the tibial nerve measuring approximately 4 mm in length were thus subjected to morphological and morphometric examination by means of a semiautomatic image analyser (Zeiss Videoplan Image Analyser).
The number of regenerating axons and their density per […] were counted, as well as the degenerate elements.

[2] = system: brain cells of Wistar rats; assay: Survival and growth of isolated brain cells treated with IGF-I, carnitines and α-lipoic acid; type: cell-based; conditions: 24 hours after addition; IGF-I 25 ng/ml, acetyl L-carnitine 100 ng/ml, carnitine mixture 100 ng/ml
Protocol: To this end, brain cells of Wistar rats were isolated according to the method described by Thanguipon (Thanguipon W., Dev. Brain Res., 11, 177, 1983) and were distributed on plates with a density of 3×10^5/cm^2. To the culture medium was added cytosine arabino-furanoside ([…]) to prevent the replication of non-neuronal cells. After eight days, the cells were washed and maintained in a culture in which the serum was replaced with BME (Basal Eagles Medium, Life Technologies, Gaithersburg, Md.) containing a 5 mM KCl concentration.
Cell survival and growth in culture were observed 24 hours after addition of the substances to the medium, on 35 mm disks in contact with 10 ng/ml of fluorescein acetate according to the technique described by Jones (Jones K. H., J. Histochem. Cytochem., 33, 77, 1985). The cell count was done with a fluorescence microscope.

[3] = Toxicological tests: high single doses, parenteral and oral; type: in vivo; conditions: rats and mice
[4] = system: sorbitol in ocular lens and sciatic nerve of diabetic rats; assay: Sorbitol content in ocular lens and sciatic nerve in the diabetic rat (streptozotocin); type: in vivo; conditions: i.p. eight days, acetyl L-carnitine 100 mg/kg, carnitine mixture 100 mg/kg, α-lipoic acid 25 mg/kg
Protocol: These tests were conducted in a group of rats in which diabetes was induced by means of the intravenous administration of 50 mg/kg of streptozotocin. One week after injection, serum glucose was tested and those rats were considered diabetic which presented serum glucose values above 450 mg/dl. These animals then received intraperitoneal injections, for eight consecutive days, of acetyl L-carnitine (100 mg/kg), or carnitine mixture (acetyl L-carnitine+propionyl L-carnitine+isovaleryl L-carnitine in a […] weight ratio to one another) (100 mg/kg), or (x-lipoic acid (25 mg/kg), either alone or in various combinations.
After eight days of treatment, after suitable isolation, the sorbitol concentration present in both the sciatic nerve and the ocular lens of diabetic rats was measured before and after the treatment administered.

wobbler mice = assay: Motor co-ordination abnormality test in wobbler mice; type: in vivo; conditions: oral twenty days; for percentage increase in running time: acetyl L-carnitine 200 mg/kg, carnitine mixture 200 mg/kg, α-lipoic acid 50 mg/kg, time to run 10 cm; for holding time on the edge of an inclined platform (in words): versus controls
Protocol: These tests were conducted in “wobbler mice”, that is to say animals that present an unsteady, staggering gait, an abnormal position of the paws and a reduced speed of movement. These abnormalities are related to progressive atrophy of the motoneurons and musculo-cutaneous nerve fibres, particularly as affecting the anterior limbs. The tests were conducted according to the procedure proposed by Mitsumoto (Mitsumoto H., Annal. Neurol., 36, 14, 1994). […] The examination was performed by evaluating, in the treated animals versus controls, the time that each animal holds on to the edge of an inclined platform (holding time) and also the time it takes to run a distance of 10 cm (running time).

[5] = system: alloxan-induced hyperglycaemia; assay: Experimental diabetic hyperglycaemia test (alloxan); type: in vivo; conditions: alloxan hyperglycaemic rat; for Serum glucose, Initial: before treatment; for Serum glucose, After 21 days: oral for three weeks, acetyl L-carnitine 200 mg/kg, α-lipoic acid 50 mg/kg
Protocol: Controlling serum glucose is therefore one of the most important means of preventing diseases related to diabetes. […] The hyperglycaemia was induced by subcutaneous injection of alloxan (100 mg/kg) in the rat, and those rats were considered hyperglycaemia which presented serum glucose levels above 450 mg/dl seven days after the alloxan injection.
Treatment with the test substances was given orally for a period of three weeks. At the end of this period, serum glucose was measured in the various groups of rats, both hyperglycaemic and treated.

[6] = system: neuromuscular conduction in diabetic rats; assay: Neuromuscular conduction test in the diabetic rat (streptozotocin); type: in vivo; conditions: after 4 weeks
Protocol: In these tests, we induced experimental diabetes in rats by intravenously injecting the experimental animals (rats with a mean weight of 300 g) with 50 mg/kg of streptozotocin. In the animals with induced diabetes (serum glucose above 450 mg/dl) the neuromuscular conduction velocity (NMCN7) was measured. To this end, the sciatic nerve was isolated (2 cm length) and the soleus muscle was separated from the gastrocnemius and its distal tendon cut and connected up to an isometric transducer which recorded the muscular contraction force (MCF). The muscle was stimulated via the sciatic nerve by means of two electrodes inserted at a distance of 10 mm from the nerve and connected up to a stimulator.
A bipolar electrode was placed in the distal end of the muscle for displaying the electromyogram via an oscilloscope.
The NMCV was measured in m/sec, dividing the distance between the stimulation electrodes by the mean difference in latency between the start of the […] potentials evoked in the two sites. The MCF was expressed in mm.

[7] = system: cerebral ischaemia induced by occluding the middle cerebral artery (MCA); assay: Neuroprotective activity in experimental cerebral ischaemia (endothelin-1 occlusion of the MCA); type: in vivo; conditions: rat, i.v. 5 minutes after endothelin; acetyl L-carnitine 50 mg/kg, carnitine mixture 50 mg/kg, α-lipoic acid 20 mg/kg; read three days later
Protocol: Occlusion of the artery is induced, and the resulting ischaemia can be checked three days after this procedure by transcardiac perfusion of a solution of paraformaldehyde (4% in PBS).
After removing the brain, it was placed in fixative containing 10% sucrose, and cryostatic sections ([…]) fixed with cresyl violet were examined under the optical microscope.
The volume of the infarcted area was calculated according to the method described by Park (Park C. K., Anns. Neurol., 20-150, 1989).

[8] = system: proprioceptive sensory perception abnormalities induced by cisplatin; assay: Cisplatin-induced sensory neuronal lesions (rotarod test); type: in vivo; conditions: mouse rotarod; cisplatin 10 mg/kg s.c. seven days; oral seven days acetyl L-carnitine 300 mg/kg, carnitine mixture 300 mg/kg, α-lipoic acid 50 mg/kg
Protocol: The proprioceptive sensory perception abnormalities induced by cisplatin in the mouse were evaluated by means of the rotarod test (Apfel, S. C., Ann. Neurol., 29, 89, 1991).

Compound | Density of tibial nerve degenerate elements (per 100 nm^2) [1] [per 100 nm^2] | Number of tibial nerve degenerate elements [1] | Cell growth (% vs controls) [2] [% vs controls] | amount administered orally without any of the animals dying ([3]; oral) | amount administered parenterally without any of the animals dying ([3]; parenteral) | Sorbitol, Lens [4] [nmol/mg] | Sorbitol, Sciatic nerve [4] [nmol/mg] | percentage increase in running time (wobbler mice) [%] | holding time on the edge of an inclined platform (in words) (wobbler mice) | Serum glucose, Initial [5] [mg/dL] | Serum glucose, After 21 days [5] [mg/dL] | MCF (muscular contraction force) [6] [mm] | NMCV (neuromuscular conduction velocity) [6] [m/sec] | Extent of ischaemia (volume in mm^3) due to occlusion of the MCA, Volume [7] [mm^3] | Equilibrium time [8] [s]
CC(=O)O[C@H](CC(=O)[O-])C[N+](C)(C)C [Acetyl L-carnitine, acetyl L-carnitine] | 0.16 ± 0.02 | 560 ± 61 | 5 ± 0.51 | more than 500 mg/kg | more than 250 mg/kg | 32.7 ± 2.5 | 1.15 ± 0.11 | 35 ± 3.2 | improves | 509.5 ± 28 | 405.9 ± 25 | 40.6 ± 3.4 | 38.5 ± 1.9 | 25.6 ± 1.5 | 9.5 ± 0.6
N.N.[Cl][Pt][Cl] [Cisplatin, cisplatin] | – | – | – | – | – | – | – | – | – | – | – | – | – | – | 8.4 ± 0.8
O=C(O)CCCCC1CCSS1 (stereo not drawn) [α-lipoic acid] | 0.20 ± 0.04 | 590 ± 0.70 | 5 ± 0.39 | – | – | 30.8 ± 3.2 | 1.08 ± 0.10 | 40 ± 3.9 | improves | 502.8 ± 36 | 360.4 ± 30 | 41.9 ± 3.3 | 40.1 ± 1.5 | 34.5 ± 2.1 | 9.9 ± 0.8
IGF-I: insulin-like growth factor, a peptide of the proinsulin group (somatomedins) | – | – | 45 ± 2.8 | – | – | – | – | – | – | – | – | – | – | – | –
